From patent publication US12037345B2, “Heterobicyclic compounds for inhibiting the activity of SHP2” (TAIHO PHARMACEUTICAL CO., LTD., priority 2018, dated 2024)
Where a name gives a salt, the structure may show the parent alone. Read-outs that look alike come from different tables or passages of the source.

Tests used:
[1] = test system: pERK (phospho-p44/42 MAPK Thr202/Tyr204) in HCC827 cells; assay: Cellular pERK Inhibition Assay, Method B (PathScan phospho-p44/42 MAPK sandwich ELISA); format: cell-based; conditions: for IC50: Homo sapiens
Description: Cellular pERK Inhibition Assay
HCC827 cells (ATCC, Manassas, USA) were seeded into 96-well plates at a density of 1×10^5 cells/well in RPMI medium supplemented with 10% FBS and incubated 24h. Compounds were diluted first in DMSO and then into serum-free medium, before being added to cells in triplicate to give a final concentration of 0.1% DMSO. Plates were incubated at 37° C. for the indicated time in a humidified atmosphere of 5% CO2 in air.
Following compound treatment, medium was removed and cells were lysed by adding 50 μL of lysis buffer (Cell Signalling Technology, Beverly, USA) to each well. Plates were then incubated at room temperature for 25 minutes with shaking. pERK levels were measured in lysates using the PathScan(Registered Trademark) phospho-p44/42 MAPK (Thr202/Tyr204) sandwich ELISA (Cell Signalling Technology, Beverly, USA) as per kit instructions. Briefly, 50 μL of cell lysate was added to 50 μL of ELISA sample diluent in a 96-well ELISA plate and incubated overnight at 4° C. Following washing, 100 μL of detection antibody was added per well and the plates incubated for 1 hour at 37° C. Plates were washed again and incubated at 37° C. for 30 minutes with 100 μl of HRP-linked secondary antibody per well. After final washing, 100 μL per well of TMB substrate was added and plates incubated at 37° C. to develop colour. Colour development was stopped by the addition of 100 μL per well of stop solution. Plates were read at 450 nm on a SpectraMax Gemini reader (Molecular Devices, Uckfield, UK).
The average signal from blank wells (no cells added) was subtracted from the signals from each sample well. Levels of pERK were then expressed as “percent of control”, using DMSO treated samples as control. Dose response curves were generated using GraphPad Prism Version 6 (GraphPad Software, La Jolla, USA) and fitted using the four parameter logistic curve fit.

SHP2 = SHP2 (Homo sapiens (Human), UniProt Q06124); assay: SHP2 Biochemical Assay (DiFMUP conversion, pIRS1-activated)
Sequence of SHP2 (Q06124 whole entry): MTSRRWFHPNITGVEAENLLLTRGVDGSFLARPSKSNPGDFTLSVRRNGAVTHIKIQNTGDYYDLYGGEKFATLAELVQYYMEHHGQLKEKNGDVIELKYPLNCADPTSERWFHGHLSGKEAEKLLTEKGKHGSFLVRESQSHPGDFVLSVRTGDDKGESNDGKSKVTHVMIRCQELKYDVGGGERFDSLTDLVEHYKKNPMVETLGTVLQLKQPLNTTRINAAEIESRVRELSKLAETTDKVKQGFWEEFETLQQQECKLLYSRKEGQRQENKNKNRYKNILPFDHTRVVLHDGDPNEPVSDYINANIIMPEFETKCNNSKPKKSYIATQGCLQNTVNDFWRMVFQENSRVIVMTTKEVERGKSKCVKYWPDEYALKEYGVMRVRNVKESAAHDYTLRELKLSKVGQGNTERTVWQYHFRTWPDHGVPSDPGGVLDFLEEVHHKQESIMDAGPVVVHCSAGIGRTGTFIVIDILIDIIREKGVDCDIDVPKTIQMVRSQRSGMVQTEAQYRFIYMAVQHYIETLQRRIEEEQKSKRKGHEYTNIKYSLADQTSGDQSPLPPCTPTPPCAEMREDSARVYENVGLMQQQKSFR
Outline: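 Rates of DiFMU formation were followed 30 min at ex 360/em 450 nm, with 50 μM DiFMUP, 10 pM SHP2 and pIRS1 peptide ([…]) after 30 min compound pre-incubation at pH 7.0 Bis-Tris propane. Four-parameter logistic IC50s in singlicate; repeat runs averaged.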

[2] = Table 19, head prints unit as "-M", read-out: pERK (IC50) Method B
[3] = Table 19, head prints unit as "-M"
[4] = Table 20, read-out: pERK (IC50, μM) Method B

Compound	IC50 [1, 2]	IC50 (SHP2; [3])	also measured
Cn1cc2c(Cl)c(-c3c[nH]c4nc(N5[C@@H]6CCNC[C@H]5CC6)n(C)c(=O)c34)ccc2n1 (racemic) [Example 153, rac-5-(4-chloro-2-methyl-2H-indazol-5-yl)-2-[(1R,6S)-3,9-diazabicyclo[4.2.1]nonan-9-yl]-3-methyl-3H,4H,7H-pyrrolo[2,3-d]pyrimidin-4-one]	0.52 µM	26 nM	–
CCn1cc2c(Cl)c(-c3c[nH]c4nc(N5CCCC(N)CC5)n(C)c(=O)c34)ccc2n1 (racemic) [Example 154, rac-2-(4-aminoazepan-1-yl)-5-(4-chloro-2-ethyl-2H-indazol-5-yl)-3-methyl-3H,4H,7H-pyrrolo[2,3-d]pyrimidin-4-one hydrochloride]	0.92 µM	21 nM	–
CCn1cc2c(Cl)c(-c3c[nH]c4nc(N5CC6CNC(C6)C5)n(C)c(=O)c34)ccc2n1 (single isomer, unassigned) [Example 190, 5-(4-chloro-2-ethyl-2H-indazol-5-yl)-2-{3,6-diazabicyclo[3.2.1]octan-3-yl}-3-methyl-3H,4H,7H-pyrrolo[2,3-d]pyrimidin-4-one hydrochloride]	–	–	IC50 [1, 4]: 3.3 µM; IC50 (SHP2; Table 20): 45 nM
CCn1cc2c(Cl)c(-c3c[nH]c4nc(N5CC6CNC(C6)C5)n(C)c(=O)c34)ccc2n1 (single isomer, unassigned) [Example 191, 5-(4-chloro-2-ethyl-2H-indazol-5-yl)-2-{3,6-diazabicyclo[3.2.1]octan-3-yl}-3-methyl-3H,4H,7H-pyrrolo[2,3-d]pyrimidin-4-one hydrochloride]	–	–	pERK Method B, % at given concentration ([1]; Table 20, at 10 uM): 60% at 10 uM; IC50 (SHP2; Table 20): 92 nM
CCn1cc2c(Cl)c(-c3c[nH]c4nc(N5CC6CNCC5C6)n(C)c(=O)c34)ccc2n1 (single isomer, unassigned) [Example 192, 5-(4-chloro-2-ethyl-2H-indazol-5-yl)-2-{3,6-diazabicyclo[3.2.1]octan-6-yl}-3-methyl-3H,4H,7H-pyrrolo[2,3-d]pyrimidin-4-one hydrochloride]	–	–	IC50 [1, 4]: 0.99 µM; IC50 (SHP2; Table 20): 67 nM
Cn1cc2c(Cl)c(-c3n[nH]c4nc(N5[C@@H]6CC[C@H]5C[C@@H](N)C6)n(C)c(=O)c34)ccc2n1 [Example 136, endo-6-[3-amino-8-azabicyclo[3.2.1]octan-8-yl]-3-(4-chloro-2-methyl-2H-indazol-5-yl)-5-methyl-1H,4H,5H-pyrazolo[3,4-d]pyrimidin-4-one]	2.7 µM	30 nM	–
Cn1cc2c(Cl)c(-c3n[nH]c4nc(N5C6CCC5CNC6)n(C)c(=O)c34)ccc2n1 [Example 137, 3-(4-chloro-2-methyl-2H-indazol-5-yl)-6-{3,8-diazabicyclo[3.2.1]octan-8-yl}-5-methyl-1H,4H,5H-pyrazolo[3,4-d]pyrimidin-4-one]	–	59 nM	pERK Method B, % at given concentration ([1]; Table 19, at 3.0 μM): 45% at 3.0 μM
Cn1cc2c(Cl)c(-c3n[nH]c4nc(N5CCC6(CC5)C[C@H](O)C[C@H]6N)n(C)c(=O)c34)ccc2n1 [Example 138, 6-[(1R,3S)-1-amino-3-hydroxy-8-azaspiro[4.5]decan-8-yl]-3-(4-chloro-2-methyl-2H-indazol-5-yl)-5-methyl-1H,4H,5H-pyrazolo[3,4-d]pyrimidin-4-one]	1.6 µM	19 nM	–
Cn1cc2c(Cl)c(-c3n[nH]c4nc(N5CCC6(CC5)COC[C@H]6N)n(C)c(=O)c34)ccc2n1 [Example 139, 6-[(4S)-4-amino-2-oxa-8-azaspiro[4.5]decan-8-yl]-3-(4-chloro-2-methyl-2H-indazol-5-yl)-5-methyl-1H,4H,5H-pyrazolo[3,4-d]pyrimidin-4-one]	0.097 µM	20 nM	–
Cn1cc2c(Cl)c(-c3n[nH]c4nc(N5[C@@H]6CC[C@H]5C[C@H](N)C6)n(C)c(=O)c34)ccc2n1 [Example 140, exo-6-[3-amino-8-azabicyclo[3.2.1]octan-8-yl]-3-(4-chloro-2-methyl-2H-indazol-5-yl)-5-methyl-1H,4H,5H-pyrazolo[3,4-d]pyrimidin-4-one]	0.48 µM	17 nM	–
Cn1cc2c(Cl)c(-c3n[nH]c4nc(N5CCC6(CC5)CNC6)n(C)c(=O)c34)ccc2n1 [Example 141, 3-(4-chloro-2-methyl-2H-indazol-5-yl)-6-{2,7-diazaspiro[3.5]nonan-7-yl}-5-methyl-1H,4H,5H-pyrazolo[3,4-d]pyrimidin-4-one]	–	43 nM	pERK Method B, % at given concentration ([1]; Table 19, at 10 μM): 64% at 10 μM
Cn1cc2c(Cl)c(-c3n[nH]c4nc(N5CCC6(CCC[C@H]6N)CC5)n(C)c(=O)c34)ccc2n1 [Example 142, 6-[(1R)-1-amino-8-azaspiro[4.5]decan-8-yl]-3-(4-chloro-2-methyl-2H-indazol-5-yl)-5-methyl-1H,4H,5H-pyrazolo[3,4-d]pyrimidin-4-one]	0.11 µM	17 nM	–
C[C@@H]1OCC2(CCN(c3nc4[nH]nc(-c5ccc6nn(C)cc6c5Cl)c4c(=O)n3C)CC2)[C@@H]1N [Example 143, 6-[(3S,4S)-4-amino-3-methyl-2-oxa-8-azaspiro[4.5]decan-8-yl]-3-(4-chloro-2-methyl-2H-indazol-5-yl)-5-methyl-1H,4H,5H-pyrazolo[3,4-d]pyrimidin-4-one]	0.081 µM	22 nM	–
Cn1cc2c(Cl)c(-c3n[nH]c4nc(N5CCC6(CC5)C[C@@H](F)C[C@H]6N)n(C)c(=O)c34)ccc2n1 [Example 144, 6-[(1R,3R)-1-amino-3-fluoro-8-azaspiro[4.5]decan-8-yl]-3-(4-chloro-2-methyl-2H-indazol-5-yl)-5-methyl-1H,4H,5H-pyrazolo[3,4-d]pyrimidin-4-one hydrochloride salt]	0.21 µM	19 nM	–
Cn1nc2ccc(-c3n[nH]c4nc(N5CC6COCC(C5)N6)n(C)c(=O)c34)c(Cl)c2c1Cl [Example 146, 3-(3,4-dichloro-2-methyl-2H-indazol-5-yl)-5-methyl-6-{3-oxa-7,9-diazabicyclo[3.3.1]nonan-7-yl}-1H,4H,5H-pyrazolo[3,4-d]pyrimidin-4-one hydrochloride salt]	3.8 µM	57 nM	–
C[C@@H]1OCC2(CCN(c3nc4[nH]nc(-c5ccc6nn(C)c(Cl)c6c5Cl)c4c(=O)n3C)CC2)[C@@H]1N [Example 147, 6-[(3S,4S)-4-amino-3-methyl-2-oxa-8-azaspiro[4.5]decan-8-yl]-3-(3,4-dichloro-2-methyl-2H-indazol-5-yl)-5-methyl-1H,4H,5H-pyrazolo[3,4-d]pyrimidin-4-one hydrochloride salt]	0.034 µM	12 nM	–
CCn1cc2c(Cl)c(-c3n[nH]c4nc(N5CCC6(CC5)CO[C@@H](C)[C@H]6N)n(C)c(=O)c34)ccc2n1 [Example 148, 6-[(3S,4S)-4-amino-3-methyl-2-oxa-8-azaspiro[4.5]decan-8-yl]-3-(4-chloro-2-ethyl-2H-indazol-5-yl)-5-methyl-1H,4H,5H-pyrazolo[3,4-d]pyrimidin-4-one hydrochloride salt]	0.025 µM	24 nM	–
CCn1cc2c(Cl)c(-c3c[nH]c4nc(N5CCC6(CC5)CO[C@@H](C)[C@H]6N)n(C)c(=O)c34)ccc2n1 [Example 150, 2-[(3S,4S)-4-amino-3-methyl-2-oxa-8-azaspiro[4.5]decan-8-yl]-5-(4-chloro-2-ethyl-2H-indazol-5-yl)-3-methyl-3H,4H,7H-pyrrolo[2,3-d]pyrimidin-4-one]	0.013 µM	12 nM	–
CCn1cc2c(Cl)c(-c3c[nH]c4nc(N5CCCNCC5)n(C)c(=O)c34)ccc2n1 [Example 151, 5-(4-chloro-2-ethyl-2H-indazol-5-yl)-2-(1,4-diazepan-1-yl)-3-methyl-3H,4H,7H-pyrrolo[2,3-d]pyrimidin-4-one hydrochloride]	0.52 µM	23 nM	–
CCn1cc2cc(-c3c[nH]c4nc(N5CCC6(CC5)COC[C@H]6N)n(C)c(=O)c34)ccc2n1 [Example 180, 2-[(4S)-4-amino-2-oxa-8-azaspiro[4.5]decan-8-yl]-5-(2-ethyl-2H-indazol-5-yl)-3-methyl-3H,4H,7H-pyrrolo[2,3-d]pyrimidin-4-one hydrochloride]	–	–	IC50 [1, 4]: 0.85 µM; IC50 (SHP2; Table 20): 34 nM
CCn1cc2c(F)c(-c3c[nH]c4nc(N5CCC6(CC5)COC[C@H]6N)n(C)c(=O)c34)ccc2n1 [Example 181, 2-[(4S)-4-amino-2-oxa-8-azaspiro[4.5]decan-8-yl]-5-(2-ethyl-4-fluoro-2H-indazol-5-yl)-3-methyl-3H,4H,7H-pyrrolo[2,3-d]pyrimidin-4-one hydrochloride]	–	–	IC50 [1, 4]: 0.21 µM; IC50 (SHP2; Table 20): 23 nM
